{
  "source": "patent US10328051B2",
  "about": "“Proline or proline derivatives for the treatment of dementia” (priority 2014, dated 2019)",
  "key": {"[1]": {"assay": "Tissue distribution and pharmacokinetics of single dose of radiolabelled 3H-CHP in mice (Study IPSS C053)", "type": "in vivo", "details": "for Tissues that accumulated particularly high CHP concentrations: single dose 3H-CHP; for AUC-1 in the stomach / Cmax in the stomach / Cmax in brain & pituitary gland / AUC-1 for remaining carcass as % of the totaled AUC-1 for all tissues & samples: single dose 50 μCi 3H-CHP", "text": "Example 1: Tissue Distribution and Pharmacokinetic Study with CHP Study “Clinical Study in Mice on the Tissue Distribution and Pharmacokinetics of Single Dose of the Radiolabelled ^3H-CHP-Study No.: IPSS C053”—(FIG. 1). This Study has been Designed and Performed According to this Invention\n1. Determination of ^3H-CHP distribution in 25 tissues, remaining carcass and whole blood over time.\n2. Determination of pharmacokinetic parameters of CHP.\n3. Comparison of intravenous (IV), and oral routes of administration.\n^3H-CHP Labelling • CHP was labelled on the 4-prime position using tritium. • The scintillation counting technique detects the tritium atom. • Therefore the counting technique detects CHP and some metabolites which incorporate the tritium. […] They were selected using inclusion and exclusion criteria, and were therefore highly standardised.\nDosing Regimen • 48 animals were each administered 50 μCi ^3H-CHP at the start of the experiment. This was termed time zero (00:00 hrs). • 27 mice were dosed via the intravenous (IV) route. • 21 mice were dosed via the oral route. • Six (6) animals were not administered with CHP. They form two control groups of 3 mice each.\nData Collection • 3 mice were sacrificed following the SOP for anesthesia and according to the following time intervals\nSample Collection • From each sacrificed mouse, the following samples were taken: • Whole BloodEyes & Harderian GlandsKidneys & Adrenal GlandsAortaLiverLungSpleenUrinary BladderBone & Bone MarrowCaecumSmall IntestineLarge IntestineLymph Nodes (Mesenteric) Muscle, PancreasBrain & Pituitary GlandBrown FatSubcutaneous FatHeartThymousBoth TestesProstateSkinStomachThyroidSalivary GlandsRemaining CarcassUrine (collected if possible: in practise this was rare)\nThe remaining carcass sample consisted of the rest after removal of whole blood and the other tissues. Any material cleaned from other tissues listed above was also included. The collected remainings were homogenised before analysis."}, "[2]": {"assay": "Tissue distribution, bioaccumulation and pharmacokinetics following multiple dose administration of 3H-CHP in mice (Study IPSS E015)", "type": "in vivo", "details": "multiple dose administration", "text": "Example 2. A Study in Mice on the Tissue Distribution, Bioaccumulation and Pharmacokinetics in Tissues, Connective and BrainTissues Following Multiple Dose Administration of ^3H-CHP Study No. IPSS E015 (FIG. 2)\nAccording to this invention the study has been designed and performed as follows:\nFrom each mouse sacrificed, the following organs & tissues samples were taken:\nLiver, kidney, pancreas, limbic system, spinal fluid, brain stem, cerebrum, cerebellum, cartilage, ligaments and tendons (dense or fibrous connective tissue), loose connective tissue, and reticular connective tissue (supports lymph nodes, bone marrow, and spleen)"}, "[3]": {"assay": "Single ascending oral doses of CHP (Study 1001-68) and single IV dose (Study 0302-72): pharmacokinetics and safety in healthy volunteers", "type": "in vivo, human", "details": "healthy subjects", "text": "study title Safety, tolerability and pharmacokinetic profile of single ascending doses of oral cis-4-hydroxy-L-proline (CHP) in healthy volunteers Galmed study no. 1001-68-. Results FIGS. 3 and 4.\nStudy title: Single Dose Absolute Bioavailability (intravenous IV solution) and Safety Study of CHP in Healthy Volunteers-GALMED Study No: 0302-72. Results are in (FIGS. 5 and 6)\nSix healthy volunteers (male, caucasian—18-45 years old) were recruited from the GCP-Galmed clinical centre. All healthy volunteers provided written informed consent prior to study participation. The study was approved by the independent Ethical Committee.\nAll volunteers were orally administered 2, 4, 6, 8, 10 and 12 grams of CHP with a wash out period of at least one week between doses of CHP.\nThe following blood and urine samples were collected for determination of the pharmacokinetics parameters of CHP and THP:\n10 hours and immediately prior to administration of CHP (0 Hour), and at 0.25, 0.5, 1, 1.5, 2, 2.5, 3, 4, 5, 6, 12 and 24 hours after administration of CHP.\nUrine was collected for the determination of the CHP and THP concentrations and the calculation of the elimination parameters of CHP and THP.\nSix healthy volunteers (male, caucasian—18-45 years old) were recruited from the GCP-Galmed clinical centre. All healthy volunteers provided written informed consent prior to study participation. The study was approved by the independent Ethical Committee. Single doses of CHP were intravenously administered: 2.0 g, 4.0 g (2×2.0 g). Each dose level was administered to all healthy volunteers. There was a washout period of at least one week between doses.\nThe following safety parameters were determined at the pre- and post-study examinations: • 1. Vital signs • 2. Clinical laboratory: Blood chemistry, Haematology, Coagulation, Urinalysis • 3. Adverse events (Signs and Symptoms) have been recorded in each of the two treatment periods."}, "[4]": {"assay": "Multiple dose ascending bioavailability and safety study (Phase I) with oral CHP (Study 0202-71)", "type": "in vivo, human", "protocol": "Example 5—Study Title: Multiple Dose Ascending Bioavailability and Safety Study Phase 1 with Oral CHP-GALMED Study No: 0202-71\n12 healthy Caucasian males were recruited (age: 18-45 years).\nMultiple doses of CHP were orally administered: • 4×2.0 g CHP per day, for 14 consecutive days (total daily dose=8.0 g CHP) • 4×3.0 g CHP per day, for 14 consecutive days (total daily dose=12.0 g CHP) Each dose level was administered to all volunteers.\nObjectives • To determine the pharmacokinetic parameters and safety of CHP and THP in plasma following oral administration of multiple doses of 8 g CHP (4×2 g) and 12 g CHP (4×3 g)—4× daily, τ=6 h, respectively, in 12 healthy subjects on Day 1 and Day 14. • To model and simulate plasma concentrations of CHP and THP during Days 1 to 14."}, "[5]": {"details": "after oral administration of CHP 2 g-12 g"}, "[6]": {"details": "male, human, plasma, healthy subjects, oral 4×2.0 g CHP/day"}, "[7]": {"details": "oral CHP, administration 4× daily"}},
  "data": [
    {"compound": "O=C(O)C1C[C@H](O)CN1", "note": "(stereo partly shown) [^3H-CHP]", "values": [
      {"measurement": "Tissues that accumulated particularly high CHP concentrations", "setting": "[1]; intravenous application", "result": "Pancreas, lymph nodes (mesenteric), kidneys & adrenal Glands, caecum, large intestine, small intestine, spleen, liver, urinary bladder"},
      {"measurement": "Tissues that accumulated particularly high CHP concentrations", "setting": "[1]; oral application", "result": "Pancreas, stomach, kidneys & adrenal glands, small intestine, lymph nodes (mesenteric), spleen, caecum, bone & bone marrow, large intestine, and liver"},
      {"measurement": "AUC-1 in the stomach", "setting": "[1]; IV", "result": 10.493, "unit": "DPM/mg"},
      {"measurement": "Cmax in the stomach", "setting": "[1]; IV", "result": 3.269, "unit": "DPM/mg"},
      {"measurement": "Cmax in brain & pituitary gland", "setting": "[1]; IV, control 4 DPM/mg", "result": 876, "unit": "DPM/mg"},
      {"measurement": "AUC-1 for remaining carcass as % of the totaled AUC-1 for all tissues & samples", "setting": "[1]; intravenous (IV)", "result": 73.3, "unit": "%"},
      {"measurement": "AUC-1 for remaining carcass as % of the totaled AUC-1 for all tissues & samples", "setting": "[1]; oral", "result": 61.8, "unit": "%"},
      {"measurement": "AUC-1 in the stomach", "setting": "[1]; oral", "result": 27.297, "unit": "DPM/mg"},
      {"measurement": "Cmax in the stomach", "setting": "[1]; oral", "result": 7.361, "unit": "DPM/mg"},
      {"measurement": "Cmax in brain & pituitary gland", "setting": "[1]; oral, control 1 DPM/mg", "result": 419, "unit": "DPM/mg"},
      {"measurement": "Tissues with particular high levels of 3H-CHP accumulation", "setting": "[2]", "result": "kidneys and adrenal glands liver, pancreas loose connective tissue cartilage, reticular connective tissue, dense/fibrinous connective tissues"}
    ]},
    {"compound": "O=C(O)[C@@H]1C[C@@H](O)CN1", "note": "[THP, trans-4-hydroxy-L-proline]", "values": [
      {"measurement": "Oral clearance (average)", "setting": "[3]; [5]", "result": 798.42, "unit": "mL/min"},
      {"measurement": "Volume of distribution (average)", "setting": "[3]; [5]", "result": 804.70, "unit": "L"},
      {"measurement": "Correlation of Cmax and AUC(0-∞) with dose", "setting": "[3]; oral CHP doses 2 g-12 g", "result": "dose linearity"},
      {"measurement": "MRT", "setting": "[3]; male, human, blood, after oral administration of CHP 2 g-12 g, read-out: Mean residence time (MRT) (average)", "result": 23.2, "unit": "h"},
      {"measurement": "half-life", "setting": "[3]; male, human, in vivo, after oral administration of CHP 2 g-12 g, read-out: Elimination half life (average) (converted)", "result": 14.8, "unit": "h"},
      {"measurement": "Tmax", "setting": "[3]; male, human, plasma, after oral administration of CHP 2 g-12 g", "result": 4.92, "unit": "h"},
      {"measurement": "Cmax", "setting": "[4]; [6]", "result": 9560, "unit": "ng/mL"},
      {"measurement": "Tmax", "setting": "[4]; [6]", "result": 1.5, "unit": "h"},
      {"measurement": "half-life", "setting": "[4]; [6]", "result": 12.4, "unit": "h"},
      {"measurement": "MRT inf", "setting": "[4]; male, human, plasma, healthy subjects, oral 4×2.0 g CHP/day, read-out: MRT (0-inf)", "result": 19.1, "unit": "h"},
      {"measurement": "Accumulation following oral administration", "setting": "[4]; multiple oral doses of CHP", "result": "remarkable extent"},
      {"measurement": "Time after which a steady state was observed", "setting": "[4]; multiple oral doses of CHP, 4× daily, simulation of plasma concentration-time curves", "result": "~96", "unit": "h"},
      {"measurement": "Css,min lower if 2.0 g of CHP was administered (versus 3.0 g)", "setting": "[4]; [7]", "result": 24, "unit": "%"},
      {"measurement": "Increase of AUCss,t, Css,max and Css,ave when the dose was increased from 2.0 g up to 3.0 g", "setting": "[4]; [7]", "result": "approximately 50%"}
    ]}
  ]
}
